Earlier results as cited in PubChem BioAssay AID1259409 (Chemical Carcinogenesis Research Information System (CCRIS), 2018).
Values joined by “and” are separate entries in the source; they are usually repeats but may differ in a detail not shown here. Equal values may be shown once.

System: rodent chemically induced tumor inhibition, incidence and multiplicity
Assay: CCRIS tumor inhibitor studies

O=P(O)(O)O
tumour outcome (control, treated, inhibition, significance) (Carcinogen: N-ETHYL-N-HYDROXYETHYLNITROSAMINE, 13147-25-6, Dose [Inhibitor]: 0, 10% IN DIET OF UNILATERALLY NEPHRECTOMIZED RATS BEGINNING POST CARCINOGEN TREATMENT AND CONTINUING FOR 18 WK (STUDY D, Route [Inhibitor]: ORAL, Species: RAT, Strain/Sex: WISTAR/MALE, Target Tissue: Type of Lesion: KIDNEY: RENAL CELL TUMOR, Dose [Carcinogen]: 1000 PPM IN DIET FOR 2 WK, Promoter: NONE USED): 5/20 (25%), 3/18 (17%), 32%, not calculated

Cc1c(C)c2c(c(C)c1O)CCC(C)(COc1ccc(CC3SC(=O)NC3=O)cc1)O2 (stereo not drawn)
tumour outcome (control, treated, inhibition, significance) (Carcinogen: 4-NITROQUINOLINE 1-OXIDE, 56-57-5, Dose [Inhibitor]: 0, 30 PPM IN DIET FOR 22 WK BEGINNING 1 WK POST FINAL CARCINOGEN DOSE (STUDY DURATION: 31 WK), Route [Inhibitor]: ORAL, Species: RAT, Strain/Sex: F344/MALE, Target Tissue: Type of Lesion: TONGUE: PAPILLOMA, Dose [Carcinogen]: 20 PPM IN DRINKING WATER FOR 8 WK): 3/24 (12.5%), 0/19 (0%), 100%, not significant | tumour outcome (control, treated, inhibition, significance) (Carcinogen: 4-NITROQUINOLINE 1-OXIDE, 56-57-5, Dose [Inhibitor]: 0, 30 PPM IN DIET FOR 22 WK BEGINNING 1 WK POST FINAL CARCINOGEN DOSE (STUDY DURATION: 31 WK), Route [Inhibitor]: ORAL, Species: RAT, Strain/Sex: F344/MALE, Target Tissue: Type of Lesion: TONGUE: SQUAMOUS CELL CARCINOMA, Dose [Carcinogen]: 20 PPM IN DRINKING WATER FOR 8 WK): 11/24 (45.8%), 5/19 (26.3%), 42.6%, not significant | tumour outcome (control, treated, inhibition, significance) (Carcinogen: 4-NITROQUINOLINE 1-OXIDE, 56-57-5, Dose [Inhibitor]: 0, 100 PPM IN DIET FOR 22 WK BEGINNING 1 WK POST FINAL CARCINOGEN DOSE (STUDY DURATION: 31 WK), Route [Inhibitor]: ORAL, Species: RAT, Strain/Sex: F344/MALE, Target Tissue: Type of Lesion: TONGUE: PAPILLOMA, Dose [Carcinogen]: 20 PPM IN DRINKING WATER FOR 8 WK): 3/24 (12.5%), 3/20 (15%), -20%, not significant | tumour outcome (control, treated, inhibition, significance) (Carcinogen: 4-NITROQUINOLINE 1-OXIDE, 56-57-5, Dose [Inhibitor]: 0, 100 PPM IN DIET FOR 22 WK BEGINNING 1 WK POST FINAL CARCINOGEN DOSE (STUDY DURATION: 31 WK), Route [Inhibitor]: ORAL, Species: RAT, Strain/Sex: F344/MALE, Target Tissue: Type of Lesion: TONGUE: SQUAMOUS CELL CARCINOMA, Dose [Carcinogen]: 20 PPM IN DRINKING WATER FOR 8 WK): 11/24 (45.8%), 1/20 (5%), 89.1%, p< 0.005 | tumour outcome (control, treated, inhibition, significance) (Carcinogen: AZOXYMETHANE (25843-45-2), Dose [Inhibitor]: 0, 0.05% ADMINISTERED 1 WK AFTER END OF DEXTRAN SODIUM SULFATE TREATMENT FOR 14 WKS (STUDY DURATION: 17 WKS), Route [Inhibitor]: DIET, Species: MOUSE, Strain/Sex: CD-1/FEMALE (10,10)/(10,10), Target Tissue: Type of Lesion: COLON: ADENOCARCINOMA, Dose [Carcinogen]: 10 MG/KG ONCE, Promoter: DEXTRAN SODIUM SULFATE (9011-18-1)): 10/10 (100%), 4/10 (40%), 60%, p<0.01 | tumour outcome (control, treated, inhibition, significance) (Carcinogen: AZOXYMETHANE (25843-45-2), Dose [Inhibitor]: 0, 0.05% ADMINISTERED 1 WK AFTER END OF DEXTRAN SODIUM SULFATE TREATMENT FOR 14 WKS (STUDY DURATION: 17 WKS), Route [Inhibitor]: DIET, Species: MOUSE, Strain/Sex: CD-1/FEMALE (10,10)/(10,10), Target Tissue: Type of Lesion: COLON: ADENOMA, Dose [Carcinogen]: 10 MG/KG ONCE, Promoter: DEXTRAN SODIUM SULFATE (9011-18-1)): 10/10 (100%), 9/10 (90%), 10%, not significant | tumour outcome (control, treated, inhibition, significance) (Carcinogen: N-METHYL-N-NITROSOUREA [684-93-5], Dose [Inhibitor]: 0.15% IN DIET FROM WKS 10 TO 52 (STUDY DURATION: 52 WKS), Route [Inhibitor]: ORAL (DIET), Species: MOUSE, Strain/Sex: PEROXISOME PROLIFERATOR- ACTIVATED RECEPTOR (PPAR GAMMA +/+)/MALE (11,9)/(13,11), Target Tissue: Type of Lesion: STOMACH: CARCINOMA, Dose [Carcinogen]: 240 PPM IN DRINKING WATER ON ALTERNATE WKS OVER A 10 WK PERIOD): (5/9) 56%, (1/11) 9%, 84%, p<0.01 | tumour outcome (control, treated, inhibition, significance) (Carcinogen: N-METHYL-N-NITROSOUREA [684-93-5], Dose [Inhibitor]: 0.15% IN DIET FROM WKS 10 TO 52 (STUDY DURATION: 52 WKS), Route [Inhibitor]: ORAL (DIET), Species: MOUSE, Strain/Sex: PEROXISOME PROLIFERATOR- ACTIVATED RECEPTOR (PPAR GAMMA +/-)/MALE (23,19)/(19,15), Target Tissue: Type of Lesion: STOMACH: CARCINOMA, Dose [Carcinogen]: 240 PPM IN DRINKING WATER ON ALTERNATE WKS OVER A 10 WK PERIOD): (17/19) 90%, (12/15) 80%, 11%, not significant

CC1=C(/C=C/C(C)=C/C=C/C(C)=C\C(=O)Nc2ccc(OC(=O)C(C)(C)C)cc2)C(C)(C)CCC1
tumour outcome (control, treated, inhibition, significance) (Carcinogen: N-NITROSOBIS(2-OXOPROPYL)AMINE, 60599-38-4, Dose [Inhibitor]: 0.25 MMOL/KG DIET FOR 364 D STARTING 2 WK AFTER LAST CARCINOGEN DOSE (STUDY DURATION: 55 WK), Route [Inhibitor]: ORAL, Species: HAMSTER, Strain/Sex: SYRIAN/FEMALE, Target Tissue: Type of Lesion: LIVER: CARCINOMA, Dose [Carcinogen]: 20 MG/KG INJECTION GIVEN TWICE 1 WK APART, Promoter: NONE USED): 7%, 10%, -43%, not calculated | tumour outcome (control, treated, inhibition, significance) (Carcinogen: N-NITROSOBIS(2-OXOPROPYL)AMINE, 60599-38-4, Dose [Inhibitor]: 0.25 MMOL/KG DIET FOR 364 D STARTING 2 WK AFTER LAST CARCINOGEN DOSE (STUDY DURATION: 55 WK), Route [Inhibitor]: ORAL, Species: HAMSTER, Strain/Sex: SYRIAN/MALE, Target Tissue: Type of Lesion: LIVER: CARCINOMA, Dose [Carcinogen]: 20 MG/KG INJECTION GIVEN TWICE 1 WK APART, Promoter: NONE USED): 5%, 25%, -400%, not calculated | tumour outcome (control, treated, inhibition, significance) (Carcinogen: N-NITROSOBIS(2-OXOPROPYL)AMINE, 60599-38-4, Dose [Inhibitor]: 0.25 MMOL/KG DIET FOR 364 D STARTING 2 WK AFTER LAST CARCINOGEN DOSE (STUDY DURATION: 55 WK), Route [Inhibitor]: ORAL, Species: HAMSTER, Strain/Sex: SYRIAN/MALE, Target Tissue: Type of Lesion: PANCREAS: CARCINOMA, Dose [Carcinogen]: 20 MG/KG INJECTION GIVEN TWICE 1 WK APART, Promoter: NONE USED): 34%, 14%, 59%, not calculated and 38%, 28%, 26%, not calculated | tumour outcome (control, treated, inhibition, significance) (Carcinogen: N-NITROSOBIS(2-OXOPROPYL)AMINE, 60599-38-4, Dose [Inhibitor]: 0.5 MMOL/KG DIET FOR 209 D STARTING 2 WK AFTER LAST CARCINOGEN DOSE FOLLOWED BY 0.25 MMOL/KG DIET FOR 117 D WITH INTERMI, Route [Inhibitor]: ORAL, Species: HAMSTER, Strain/Sex: SYRIAN/FEMALE, Target Tissue: Type of Lesion: LIVER: CARCINOMA, Dose [Carcinogen]: 20 MG/KG INJECTION GIVEN TWICE 1 WK APART, Promoter: NONE USED): 5%, 19%, -280%, not calculated | tumour outcome (control, treated, inhibition, significance) (Carcinogen: N-NITROSOBIS(2-OXOPROPYL)AMINE, 60599-38-4, Dose [Inhibitor]: 0.5 MMOL/KG DIET FOR 209 D STARTING 2 WK AFTER LAST CARCINOGEN DOSE FOLLOWED BY 0.25 MMOL/KG DIET FOR 117 D WITH INTERMI, Route [Inhibitor]: ORAL, Species: HAMSTER, Strain/Sex: SYRIAN/FEMALE, Target Tissue: Type of Lesion: PANCREAS: CARCINOMA, Dose [Carcinogen]: 20 MG/KG INJECTION GIVEN TWICE 1 WK APART, Promoter: NONE USED): 38%, 27%, 29%, not calculated | tumour outcome (control, treated, inhibition, significance) (Carcinogen: N-NITROSOBIS(2-OXOPROPYL)AMINE, 60599-38-4, Dose [Inhibitor]: 0.5 MMOL/KG DIET FOR 209 D STARTING 2 WK AFTER LAST CARCINOGEN DOSE FOLLOWED BY 0.25 MMOL/KG DIET FOR 117 D WITH INTERMI, Route [Inhibitor]: ORAL, Species: HAMSTER, Strain/Sex: SYRIAN/MALE, Target Tissue: Type of Lesion: LIVER: HEPATOCELLULAR CARCINOMA, Dose [Carcinogen]: 20 MG/KG INJECTION GIVEN TWICE 1 WK APART, Promoter: NONE USED): 7%, 19%, -171%, not calculated | tumour outcome (control, treated, inhibition, significance) (Carcinogen: N-NITROSOBIS(2-OXOPROPYL)AMINE, 60599-38-4, Dose [Inhibitor]: 0.5 MMOL/KG DIET FOR 209 D STARTING 2 WK AFTER LAST CARCINOGEN DOSE FOLLOWED BY 0.25 MMOL/KG DIET FOR 117 D WITH INTERMI, Route [Inhibitor]: ORAL, Species: HAMSTER, Strain/Sex: SYRIAN/MALE, Target Tissue: Type of Lesion: PANCREAS: CARCINOMA, Dose [Carcinogen]: 20 MG/KG INJECTION GIVEN TWICE 1 WK APART, Promoter: NONE USED): 34%, 30%, 12%, not significant

Cc1cccc(C(=O)/C=C/c2cccc(O)c2)c1
tumour outcome (control, treated, inhibition, significance) (Carcinogen: 7,12-DIMETHYLBENZ[A]ANTHRACENE, 57-97-6, Dose [Inhibitor]: 0, 1.62 MICROMOLAR 2/WK FOR 18 WK APPLIED SIMULTANEOUSLY WITH PROMOTER DOSE (STUDY DURATION: 18 WK), Route [Inhibitor]: DERMAL, Species: MOUSE, Strain/Sex: ICR/FEMALE, Target Tissue: Type of Lesion: SKIN: TUMOR, Dose [Carcinogen]: 100 UG ONCE, Promoter: 12-O-TETRADECANOYLPHORBOL-13-ACETATE, 16561-29-8): 90%, 20%, 78%, not calculated

[K+]
outcome (Carcinogen: N-METHYL-N-NITROSOUREA [684-93-5], Dose [Inhibitor]: 0.05% IN DRINKING WATER, 2 WKS BEFORE CARCINOGEN AND FOR 26 WKS AFTER, Route [Inhibitor]: DRINKING WATER, Species: RAT, Strain/Sex: SPRAGUE-DAWLEY/FEMALE, Target Tissue: Type of Lesion: MAMMARY GLAND: CARCINOMA, Dose [Carcinogen]: 50 MG/KG BW ONCE AT 7 WKS OF AGE (IN SALINE SOLUTION)): 8/11 (73%) vs 10/11 (94%) at 16 wks
